Among the test systems are KM12 colon; A549 NSCLC; OVCAR-4 ovarian; NCI-H23 lung; SK-MEL-2 melanoma; HCT-116 colon; SK-MEL-5 melanoma; ACHN renal; 786-0 renal; SNB-75 CNS; NCI-H226 lung; HCC-2998 colon; UO-31 renal; MOLT-4 leukemia; A498 renal; SF-268 CNS; HCT-15 colon.
What all share (experiment): DTP human tumour cell line panel, 48 h

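Values below derive from 48-hour exposures of cells grown in 96-well plates, with endpoints linearly interpolated between the two concentrations bracketing the appropriate inhibition level. The concentration for full growth arrest is given as TGI.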 Where only a bound is given, the exact number is not on record here.

For orientation: TGI means the concentration giving total growth inhibition. Low readings indicate more potent growth arrest, high ones less potent growth arrest.

With `O=C1/C(=C\c2ccc(Cl)cc2Cl)Sc2scc(-c3cccc([N+](=O)[O-])c3)[n+]21`, the TGI in the assay on KM12 colon worked out at 26.7 µM; in the assay with A549 NSCLC it was 42.3 µM; in the assay with OVCAR-4 ovarian, 38.1 µM; in the assay on NCI-H23 lung, 31.5 µM; in the assay with SK-MEL-2 melanoma it was 30.3 µM; in the assay on HCT-116 colon it was 17.8 µM. Besides, the TGI in the assay with SK-MEL-5 melanoma is 7.93 µM; with ACHN renal it was 12.6 µM; with 786-0 renal, 12.3 µM; with SNB-75 CNS, more than 69.8 µM; in the assay on NCI-H226 lung, 38.2 µM; in the assay with HCC-2998 colon it was 20.5 µM. Besides, the TGI in the assay on UO-31 renal was 13.8 µM; in the assay on MOLT-4 leukemia, 3.94 µM; in the assay with A498 renal, more than 100 µM; in the assay with SF-268 CNS, 57.8 µM; in the assay on HCT-15 colon, 4.87 µM.

Turning to `O=C(O)CN1CCNCCN(CP(=O)(O)O)CC1`, the TGI in the assay with KM12 colon was more than 100 µM; with A549 NSCLC it was more than 100 µM; in the assay on OVCAR-4 ovarian, more than 100 µM; in the assay on NCI-H23 lung, more than 100 µM; with SK-MEL-2 melanoma, more than 100 µM; with HCT-116 colon, more than 27.5 µM. In addition, the TGI is more than 66.5 µM in the assay with SK-MEL-5 melanoma; more than 100 µM in the assay with ACHN renal; more than 29.2 µM with 786-0 renal; more than 100 µM with SNB-75 CNS; more than 100 µM with NCI-H226 lung; more than 100 µM in the assay on HCC-2998 colon. Besides, the TGI was more than 100 µM with UO-31 renal; more than 100 µM in the assay with MOLT-4 leukemia; 99.1 µM with A498 renal; more than 100 µM in the assay with SF-268 CNS; more than 100 µM in the assay with HCT-15 colon.

As for `Cc1ccc(S(=O)(=O)N2CC3OC(C)(C)OC3C2CO)cc1` (stereo not drawn), the TGI with KM12 colon, in the assay with A549 NSCLC, in the assay with OVCAR-4 ovarian, in the assay on SK-MEL-2 melanoma, in the assay on HCT-116 colon and in the assay with SK-MEL-5 melanoma was more than 100 µM throughout. Moreover, the TGI in the assay on ACHN renal, in the assay on 786-0 renal, with SNB-75 CNS, in the assay on NCI-H226 lung, in the assay on HCC-2998 colon and in the assay on MOLT-4 leukemia was more than 100 µM in each case. The TGI with A498 renal, in the assay with SF-268 CNS and with HCT-15 colon was more than 100 µM throughout.

In the case of `CC(=O)O[C@H]1C(=O)[C@@]2(C)[C@H]([C@H](OC(=O)c3ccccc3)[C@]3(O)C[C@H](OC(=O)[C@H](OC(=O)OCCC(O)CO)[C@@H](NC(=O)c4ccccc4)c4ccccc4)C(C)=C1C3(C)C)[C@]1(OC(C)=O)CO[C@@H]1C[C@@H]2O` (stereo partly drawn), the TGI was 13.1 µM in the assay on KM12 colon; more than 100 µM with A549 NSCLC; more than 100 µM in the assay with OVCAR-4 ovarian; more than 37 µM in the assay with NCI-H23 lung; more than 100 µM with SK-MEL-2 melanoma; 11.3 µM in the assay on HCT-116 colon. Further, the TGI with SK-MEL-5 melanoma was 0.613 µM; with ACHN renal, more than 62.2 µM; in the assay on 786-0 renal, 33 µM; in the assay on SNB-75 CNS, 1.28 µM; in the assay with NCI-H226 lung it was less than 0.01 µM; with HCC-2998 colon, 0.0471 µM. The TGI in the assay on UO-31 renal was more than 100 µM; in the assay on MOLT-4 leukemia, 24.9 µM; in the assay with A498 renal, 28.9 µM; in the assay with SF-268 CNS it was more than 56.9 µM; in the assay with HCT-15 colon it was more than 35.4 µM.

With `O=c1[nH]nc(Cc2ccccc2)n1/N=C/c1c(O)ccc2ccccc12`, the TGI in the assay with KM12 colon was 81.9 µM; in the assay with A549 NSCLC, more than 100 µM; in the assay on OVCAR-4 ovarian, 67.1 µM; in the assay with NCI-H23 lung, more than 100 µM; with SK-MEL-2 melanoma, more than 100 µM; with HCT-116 colon, 45.6 µM. The TGI with SK-MEL-5 melanoma was 48.7 µM; in the assay on ACHN renal, 84.5 µM; in the assay on 786-0 renal, 30.3 µM; with SNB-75 CNS, 79.2 µM; with NCI-H226 lung, 73.6 µM; in the assay on HCC-2998 colon, more than 100 µM. In addition, the TGI in the assay with UO-31 renal was more than 100 µM; in the assay with MOLT-4 leukemia it was 79.2 µM; in the assay on A498 renal, 47.4 µM; with SF-268 CNS, 90.6 µM; in the assay with HCT-15 colon it was more than 100 µM.

With `COc1cc(N(CCC#N)CCC#N)ccc1/C=C1\SC(=S)NC1=O`, the TGI with KM12 colon, with A549 NSCLC, with OVCAR-4 ovarian, in the assay with NCI-H23 lung, in the assay with SK-MEL-2 melanoma and with HCT-116 colon was more than 100 µM throughout. Further, the TGI with SK-MEL-5 melanoma, in the assay on ACHN renal, in the assay on 786-0 renal, with SNB-75 CNS, in the assay with NCI-H226 lung and in the assay on HCC-2998 colon was more than 100 µM each time. The TGI in the assay on UO-31 renal, in the assay on MOLT-4 leukemia, in the assay with A498 renal, in the assay on SF-268 CNS and in the assay with HCT-15 colon was more than 100 µM throughout.

As to `Cc1nc(C)c(C(=O)NNC(=O)Cc2ccccc2)cc1C(=O)NNC(=O)Cc1ccccc1`, the TGI with KM12 colon, in the assay on A549 NSCLC, in the assay on OVCAR-4 ovarian, with NCI-H23 lung, with SK-MEL-2 melanoma and with HCT-116 colon was more than 100 µM throughout. The TGI with SK-MEL-5 melanoma, in the assay with ACHN renal, in the assay on 786-0 renal, in the assay on SNB-75 CNS, in the assay with NCI-H226 lung and in the assay on HCC-2998 colon was more than 100 µM throughout. Besides, the TGI in the assay with UO-31 renal, in the assay on MOLT-4 leukemia, in the assay on A498 renal, in the assay with SF-268 CNS and in the assay on HCT-15 colon was more than 100 µM throughout.

On to `O=C1CCCCC1CN1CCCC1` (stereo not drawn), for which the TGI in the assay with KM12 colon, in the assay on A549 NSCLC, in the assay on OVCAR-4 ovarian, in the assay with NCI-H23 lung, in the assay with SK-MEL-2 melanoma and with HCT-116 colon was more than 100 µM each time. The TGI in the assay on SK-MEL-5 melanoma, with ACHN renal, with 786-0 renal, in the assay with SNB-75 CNS, in the assay on NCI-H226 lung and in the assay with HCC-2998 colon was more than 100 µM throughout. Besides, the TGI in the assay on MOLT-4 leukemia, in the assay on A498 renal, in the assay with SF-268 CNS and in the assay on HCT-15 colon was more than 100 µM throughout.

Source of the values: PubChem BioAssay (NCI).
